# Target: MtOMPDC (wildtype OMPDC from Methanothermobacter thermautotrophicus) (Methanothermobacter thermautotrophicus, UniProt O26232)
# Test: OMP decarboxylation followed at […] nm
# Format: biochemical
# Sequence of MtOMPDC (wildtype OMPDC from Methanothermobacter thermautotrophicus) (O26232 whole entry): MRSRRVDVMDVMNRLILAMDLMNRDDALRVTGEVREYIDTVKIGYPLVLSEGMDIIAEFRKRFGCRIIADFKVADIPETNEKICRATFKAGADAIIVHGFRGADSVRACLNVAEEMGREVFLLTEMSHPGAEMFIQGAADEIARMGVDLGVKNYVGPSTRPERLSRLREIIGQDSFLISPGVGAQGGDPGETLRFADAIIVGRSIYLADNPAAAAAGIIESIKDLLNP
compound,measurement,value
"O=c1ccn([C@@H]2O[C@H](COP(=O)(O)O)[C@@H](O)[C@H]2O)c(=O)[nH]1 [UMP, uridine 5′-monophosphate]",Ki,~100 µM

# Reference: publication PMC2754381 (Biochemistry, 2009)
